From patent US20080058703A1, “Drug electrotransport with hydration measurement of hydratable reservoir” (priority 2006, published 2008)

Assay: In vitro skin flux of apomorphine by electrotransport from hydrated TECOGEL matrix (horizontal diffusion cell)
Format: in vitro ADME
Conditions: in vitro electrotransport from hydrated TECOGEL matrix across heat separated human epidermis
Source text: The diamond symbols show the average data points at particular time intervals and the vertical lines show the standard deviation. Measurement of impedance during hydration of TECOGEL® is reported in FIG. 8 and described in Example 3 below. The flux of apomorphine free base is plotted as a function of electrotransport time (in hrs). The unit for the flux is μg/cm^2 hr. […] It is noted that the TECOGEL® was used to illustrate that hydration can be done and the level of hydration measured. The exact type of polyurethane gel used is not critical as long a gel can be formed that can allow drug ions to migrate under an electrical potential.
The following methodology was used for the in vitro flux experiments for illustrative purposes:
Custom-built horizontal diffusion cells made in-house from DELRIN® polymeric material were used for the in vitro skin flux experiments and heat separated human epidermis was used. A consumable Ag electrode with the same polarity as the drug was adhered to one end of a DELRIN® material diffusion cell that functioned as the donor cell. […]
A Hanson Research MICROETTE™ collection system, interfaced to the experimental set up, collected the drug containing receptor solution from the reservoir underneath the skin directly into HPLC vials. […] The Hanson system collected samples to be analyzed by an HPLC to determine delivery efficiency of the drug in the formulation. […]

SMILES: CN1CCc2cccc3c2[C@H]1Cc1ccc(O)c(O)c1-3 [apomorphine]
- rise to steady state time: about 3 hours
- steady state flux of apomorphine free base (37° C., until about 24 hours): about 32 μg/cm^2 hr
